Results taken from patent US20160296646A1, “ALKYLPHOSPHOCHOLINE ANALOGS FOR MULTIPLE MYELOMA IMAGING AND THERAPY” (Wisconsin Alumni Research Foundation, priority 2015, published 2016).

What was measured:
[1] = system: MM.1S multiple myeloma cell line; assay: Uptake of fluorescent analogs in MM.1S cells (optical imaging); type: cell-based; details: for uptake: MM.1S cells, fluorescence imaging
Description: (§1) FIG. 4 includes optical images showing uptake of CLR1501 in three different multiple myeloma cell lines (top row, MM.1S; middle row, MM.1R; bottom row, RPM18226). […] 20× magnification.
(§2) FIG. 6 includes optical images showing uptake of CLR1502 in three different multiple myeloma cell lines (top row, MM1S; middle row, MM.1R; bottom row, RPM18226). […] 20× magnification.

[2] = system: MM.1R multiple myeloma cell line; assay: Uptake of fluorescent analogs in MM.1R cells (optical imaging); type: cell-based; details: fluorescence imaging
Description: as §1, §2

[3] = system: RPM18226 multiple myeloma cell line; assay: Uptake of fluorescent analogs in RPM18226 cells (optical imaging); type: cell-based; details: fluorescence imaging
Description: as §1, §2

[4] = system: U266 multiple myeloma cell line; assay: Uptake of fluorescent analogs in U266 cells (optical imaging); type: cell-based; details: fluorescence imaging
Description: (§3) FIG. 5 includes optical images showing uptake of CLR1501 in two additional multiple myeloma cell lines (top row, U266; bottom row, H929). […] 20× magnification.
(§4) FIG. 7 includes optical images showing uptake of CLR1502 in two additional multiple myeloma cell lines (top row, U266; bottom row, H929). […] 20× magnification.

[5] = system: NCIH929 multiple myeloma cell line; assay: Uptake of fluorescent analogs in NCIH929 cells (optical imaging); type: cell-based; details: fluorescence imaging
Description: as §3, §4

[6] = system: peripheral blood mononuclear cells (PBMCs) isolated from normal human blood; assay: Uptake in normal peripheral blood mononuclear cells; type: cell-based; details: compared to MM1.S cells
Protocol: FIG. 8 includes optical images showing uptake of CLR1502 in cells co-incubated with Hoechst 33452 (blue nuclear) stain. […] 20× magnification.
(§5) Uptake of CLR1501 and 1502 was assessed using peripheral blood mononuclear cells (PBMCs) isolated from normal human blood.

[7] = system: CD14+ monocyte/macrophage cells from normal human blood; assay: Uptake in CD14+ monocyte/macrophage cells among normal PBMCs; type: cell-based
Protocol: as §5

[8] = system: CD138+ multiple myeloma tumor cells; assay: Uptake in CD138+ tumor cells isolated from patient bone marrow aspirate; type: cell-based, human
Description: (§6) Bone marrow aspirate samples were taken from fifteen different patients diagnosed with multiple myeloma.
(§7) Uptake of both CLR1501 and CLR1502 was quantified by measuring fluorescence intensity for CD138^+ multiple myeloma tumor cells, CD14^+ monocyte/macrophage cells, and CD138^−/CD14^− cells isolated from bone marrow aspitrates from multiple myeloma patients.

[9] = system: CD14+ monocyte/macrophage cells; assay: Uptake in CD14+ monocyte/macrophage cells isolated from patient bone marrow aspirate; type: cell-based, human
Description: as §6, §7

[10] = system: CD138-/CD14- cells (other mononuclear cells); assay: Uptake in CD138-/CD14- cells isolated from patient bone marrow aspirate; type: cell-based, human
Description: as §6, §7

[11] = system: MM.1s multiple myeloma cells; assay: Bioactivity of [131I]-CLR1404: live fraction of MM.1s cells after exposure; type: cell-based; details: 48 hour exposure, control 96%
Protocol: MM.1s multiple myeloma cells were exposed to two different concentrations of [^131I]-CLR1404 (0.082 μCi and 0.91 μCi) for a 48 hour period, as well as to a control containing no [^131I]-CLR1404. Bioactivity for each group was determined by determining the percentage of cells that remained alive after the exposure period (live fraction).

[12] = CD138+ cells from bone marrow aspirates of fifteen multiple myeloma patients
[13] = CD14+ cells from patient bone marrow aspirates
[14] = CD138- cells from the same patient samples (except CD14+ cells)

Structure (SMILES)	uptake [1]	localization of uptake within cells ([1]; MM.1S, MM.1R, RPM18226 cells co-incubated with lipid raft stain)	uptake [2]	uptake [3]	uptake [4]	uptake [5]	uptake [6]	uptake [7]	uptake [8, 12]	uptake ([8]; patient A, CD138+ cells)	uptake [9, 13]	uptake ([9]; patient A, CD14+ cells)	uptake [10, 14]	uptake ([10]; patient A, CD138-/CD14- cells)	uptake ([10]; patient B, CD138-/CD14- cells co-incubated with Hoechst 33452)	uptake in CD138+ tumor cells relative to CD14 monocyte/macrophage cells (fluorescence intensity) ([8]; patient G, same patient)	uptake in CD138+ tumor cells relative to CD138-/CD14- cells (fluorescence intensity) ([8]; patient G, same patient)	uptake ([10]; patient D, CD138-/CD14- cells)	live fraction ([11]; 0.082 μCi) [%]	live fraction ([11]; 0.91 μCi) [%]
C[N+](C)(C)CCOP(=O)([O-])OCCCCCCCCCCCCCCCCCCc1ccc(C2=C3C=CC=[N+]3[B-](F)(F)n3cccc32)cc1 [CLR1501]	strong uptake	localized to the lipid rafts	strong uptake	strong uptake	high uptake	high uptake	minimal to no uptake	did exhibit uptake	high uptake	taken up	did take up the analogs	taken up	very minimal to no uptake	no detectable uptake	minimal CLR1501 uptake	–	–	–	–	–
CN1C(=CC=C2CCCC(C=CC3=[N+](C)c4ccccc4C3(C)C)=C2c2ccc(CCCCCCCCCCCCCCCCCCOP(=O)(O)OCC[N+](C)(C)C)cc2)C(C)(C)c2ccccc21 [CLR1502]	high uptake	–	high uptake	high uptake	high uptake	high uptake	minimal to no uptake	did exhibit uptake	high uptake	–	did take up the analogs	–	very minimal to no uptake	–	–	threefold greater	about fifteen fold greater	minimal uptake	–	–
C[N+](C)(C)CCOP(=O)([O-])OCCCCCCCCCCCCCCCCCCc1ccc([131I])cc1 [[^131I]-CLR1404]	–	–	–	–	–	–	–	–	–	–	–	–	–	–	–	–	–	–	71	0
